Data taken from patent publication US20210221812A1, “MATRINE a-KETOAMINE COMPOUNDS, PREPARATION METHOD THEREFOR AND USE THEREOF” (SHANGHAI XINGYE PHARMACEUTICAL TECHNOLOGY CO., LTD, priority 2018, published 2021).

Tests used:
[1] = system: HpeG-2 cells; test: Anti-tumor activity of NK cells activated by compounds, HpeG-2 (CFSE/PI flow cytometry); assay type: cell-based; details: tumor cells treated with 20 μM compound 48 h, then mixed with NK cells 5:1 for 4 hours; CFSE+PI+ tumor cells; read-out: HpeG-2 inhibition rate (%)
Method: (§1) Logarithmic growth phase of Lovo, HpeG-2, A549, k562, Panc-1 cells were collected and seeded in a 6-well plate at a density of 5×10^5/mL and 2 mL/well separately. The experimental group was treated with 20 μM final drug concentration of GJDx compounds, and the control group was treated with an equal volume of RPMI1640 medium. The groups were cultured at 37° C., saturated humidity, 5% CO2 for 48 h. After that, the cells of each group were collected, centrifuged and the supernatant was removed and resuspended in PBS at a density of 1×10^6/mL. Then 2 μL of CFSE stock solution (final concentration was 10 μM) was added into the cell suspension per 1 mL and cultured at 37° C. with 5% CO2 for 30 min, and then added 5-10 times of the volume of 4° C. pre-chilled RPM 1640 complete medium, and incubated on ice for 5 minutes, discarded the supernatant by centrifugation at 4° C., and wash the cells with fresh medium for 3 times. After that, mixing the labeled tumor cells and NK cells (the NK cell culture medium was α-MEM contained 1.5 g/L sodium bicarbonate, 12.5% fetal bovine serum, and 12.5% horse serum) according to the ratio of 5:1, the mixture cells was collected and washed with flow buffer twice after incubated for 4 hours, then 50 μg/mL PI was added, and incubated at room temperature for 15 minutes in the dark, and finally testing the percentage of CFSE^+PI^+ tumor cells on the flow cytometer.

[2] = system: k562 cells; test: Anti-tumor activity of NK cells activated by compounds, k562 (CFSE/PI flow cytometry); assay type: cell-based; details: Homo sapiens, tumor cells treated with 20 μM compound 48 h, then mixed with NK cells 5:1 for 4 hours, CFSE+PI+ tumor cells, read-out: k562 inhibition rate (%)
Method: as §1

[3] = system: Lovo cells; test: Anti-tumor activity of NK cells activated by compounds, Lovo (CFSE/PI flow cytometry); assay type: cell-based; details: Homo sapiens, tumor cells treated with 20 μM compound 48 h, then mixed with NK cells 5:1 for 4 hours, CFSE+PI+ tumor cells, read-out: Lovo inhibition rate (%)
Method: as §1

[4] = system: A549 cells; test: Anti-tumor activity of NK cells activated by compounds, A549 (CFSE/PI flow cytometry); assay type: cell-based; details: Homo sapiens, tumor cells treated with 20 μM compound 48 h, then mixed with NK cells 5:1 for 4 hours, CFSE+PI+ tumor cells, read-out: A549 inhibition rate (%)
Method: as §1

[5] = system: Panc-1 cells; test: Anti-tumor activity of NK cells activated by compounds, Panc-1 (CFSE/PI flow cytometry); assay type: cell-based; details: Homo sapiens, tumor cells treated with 20 μM compound 48 h, then mixed with NK cells 5:1 for 4 hours, CFSE+PI+ tumor cells, read-out: Panc-1 inhibition rate (%)
Method: as §1

[6] = system: Lovo cells; test: MTT tumor cell growth inhibition, Lovo; assay type: cell-based; details: Homo sapiens, 48 h, read-out: Tumors growth-inhibitory activity (IC50) Lovo
Method: (§2) Using MTT method to determine the growth inhibition activity of the matrine compounds on Lovo, MGC-803, Mia-paca2, HpeG-2, A549, k562, and Panc-1 cells in vitro. Logarithmic growth phase of Lovo, MGC-803, Mia-paca2, HpeG-2, A549, k562, Panc-1 cells were inoculated into 96-well plates (purchased from Institute of Biochemical Cells, Chinese Academy of Sciences, and cultured according to conventional tumor cell culture methods) at a density of 4×10^4/mL and 180 μL/well; after the cells adhered to the wall, 20 μL of drug solution was added to each well and matined the final drug concentrations were 0.1 μM, 1 μM, 10 μM, 50 μM, 100 μM respectively. After 48 h, 5 mg/mL MTT solution was added (20 μL/well) and maintained in a CO2 incubator for 3-4 h. After that, discarding the supernatant carefully, and DMSO was added (200 μL/well) when the residual liquid was air-dried, and shook for 0.5-1 h until the residual crystals was dissolved. The absorbance OD was measured at 492 nm by a microplate reader. GraphPad Prism 5 software was used to calculate the IC50 value.

[7] = system: Mia-paca2 cells; test: MTT tumor cell growth inhibition, Mia-paca2; assay type: cell-based; details: Homo sapiens, MIA PaCa-2, 48 h, read-out: Tumors growth-inhibitory activity (IC50) Mia-paca2
Method: as §2

[8] = system: Panc-1 cells; test: MTT tumor cell growth inhibition, Panc-1; assay type: cell-based; details: Homo sapiens, 48 h, read-out: Tumors growth-inhibitory activity (IC50) Panc-1
Method: as §2

[9] = system: A549 cells; test: MTT tumor cell growth inhibition, A549; assay type: cell-based; details: Homo sapiens, 48 h, read-out: Tumors growth-inhibitory activity (IC50) A549
Method: as §2

[10] = system: MGC-803 cells; test: MTT tumor cell growth inhibition, MGC-803; assay type: cell-based; details: Homo sapiens, 48 h, read-out: Tumors growth-inhibitory activity (IC50) MGC-803
Method: as §2

[11] = system: k562 cells; test: MTT tumor cell growth inhibition, k562; assay type: cell-based; details: Homo sapiens, 48 h, read-out: Tumors growth-inhibitory activity (IC50) k562
Method: as §2

[12] = system: HpeG-2 cells; test: MTT tumor cell growth inhibition, HpeG-2; assay type: cell-based; details: 48 h, read-out: Tumors growth-inhibitory activity (IC50) HpeG-2
Method: as §2

[13] = system: TNF-α; test: TNF-α activity inhibiting assay (LPS-stimulated peripheral blood, ELISA); assay type: cell-based, human; details: Homo sapiens, compound 20 μM, LPS 10 ng/mL, 6 hours, diluted peripheral blood of healthy volunteers, read-out: TNF-α inhibition rate (%)
Method: Methods: Peripheral blood from healthy volunteers was collected with EDTA anticoagulant tubes. After being diluted 5-fold with 1640 medium (Gibco, USA), the blood was added to 96-well cell culture plates (Costar, USA) and then treated with 10 μL solution of the compound of general formula (I) of the present invention in DMSO (Sigma, USA), the final concentration of the compound was 20 μM with the final concentration of DMSO was 0.2%. After incubation for 60 minutes in an incubator at 37° C. under 5% CO2, 10 μL LPS (Sigma, USA) was added to the reaction system, and the final concentration was 10 ng/mL. After further culturing for 6 hours in the incubator at 37° C. under 5% CO2, the supernatant was collected. The content of TNF-α was determined by ELISA (BD Biosciences, USA). Absorbance was detected at OD450 nm with a microplate reader, with OD 650 nm as reference. The control, a solution containing 0.2% DMSO medium, was as 0% inhibition. Raw data and standard curves were recorded. The four-parameter drug inhibition curve was plotted by XL-fit software and the inhibition rate of each compound was calculated.

| Compound | inhibition at 20 µM [1] [%] | inhibition at 20 µM [2] [%] | inhibition at 20 µM [3] [%] | inhibition at 20 µM [4] [%] | inhibition at 20 µM [5] [%] | IC50 [6] [µM] | IC50 [7] [µM] | IC50 [8] [µM] | IC50 [9] [µM] | IC50 [10] [µM] | IC50 [11] [µM] | IC50 [12] [µM] | inhibition at 20 µM [13] [%] |
| --- | --- | --- | --- | --- | --- | --- | --- | --- | --- | --- | --- | --- | --- |
| O=C1[C@H](N2C(=O)c3ccccc3C2=O)CC[C@@H]2[C@H]3CCCN4CCC[C@@H](CN12)[C@@H]34 [GJD 26] | > 50 | > 50 | > 50 | > 50 | > 50 |  |  |  |  |  |  |  |  |
| CC(=O)Oc1ccccc1C(=O)NC1CC[C@@H]2[C@H]3CCCN4CCC[C@@H](CN2C1=O)[C@@H]34 (some centres unmarked) [GJD 51] | > 50 | < 50 | < 50 | < 50 | < 50 |  |  |  |  |  |  |  |  |
| O=C1c2ccccc2C(=O)N1C1CC[C@@H]2[C@H]3CCCN4CCC[C@@H](CN2C1=O)[C@@H]34 (some centres unmarked) [GJD 01] | > 50 | < 50 | ≥ 50 | > 50 | < 50 | 50 to 100 | > 100 | > 100 | 50 to 100 | > 100 | 50 to 100 | 50 to 100 | ≥ 50 |
| O=C1c2cccc(C(F)(F)F)c2C(=O)N1C1CC[C@@H]2[C@H]3CCCN4CCC[C@@H](CN2C1=O)[C@@H]34 (some centres unmarked) [GJD 07] | > 50 | > 50 | > 50 | < 50 | > 50 | < 50 | 50 to 100 | 50 to 100 | > 100 | 50 to 100 | 50 to 100 | 50 to 100 | > 50 |
| O=C1c2ccccc2CN1C1CC[C@@H]2[C@H]3CCCN4CCC[C@H](CN2C1=O)[C@@H]34 (some centres unmarked) [GJD 42] | > 50 | < 50 | > 50 | > 50 | < 50 |  |  |  |  |  |  |  |  |
| O=C(NC1CC[C@@H]2[C@H]3CCCN4CCC[C@@H](CN2C1=O)[C@@H]34)c1cc(Cl)ccc1O (some centres unmarked) [GJD 55] | < 50 | < 50 | < 50 | < 50 | > 50 | 50 to 100 | 50 to 100 | 50 to 100 | < 50 | > 100 | 50 to 100 | < 50 |  |
| Nc1cccc2c1C(=O)N(C1CC[C@@H]3[C@H]4CCCN5CCC[C@@H](CN3C1=O)[C@@H]45)C2=O (some centres unmarked) [GJD 02] | > 50 | > 50 | > 50 | > 50 | > 50 | < 50 | 50 to 100 | < 50 | 50 to 100 | 50 to 100 | < 50 | < 50 | > 50 |
| Nc1cccc2c1C(=O)N(C1CC[C@@H]3[C@H]4CCC[N+]5([O-])CCC[C@@H](CN3C1=O)[C@@H]45)C2=O (some centres unmarked) [GJD 63] | > 50 | > 50 | > 50 | > 50 | > 50 |  |  |  |  |  |  |  |  |
| O=C1c2cccc([N+](=O)[O-])c2CN1C1CC[C@@H]2[C@H]3CCCN4CCC[C@@H](CN2C1=O)[C@@H]34 (some centres unmarked) [GJD 31] | > 50 | > 50 | > 50 | > 50 | ≥ 50 |  |  |  |  |  |  |  |  |
| O=C(NC1CC[C@@H]2[C@H]3CCCN4CCC[C@@H](CN2C1=O)[C@@H]34)c1ccc(OC(F)F)c(OCC2CC2)c1 (some centres unmarked) [GJD 52] |  |  |  |  |  | 50 to 100 | 50 to 100 | 50 to 100 | < 50 | 50 to 100 | 50 to 100 | < 50 | > 50 |
| O=C1c2cccnc2C(=O)N1C1CC[C@@H]2[C@H]3CCCN4CCC[C@@H](CN2C1=O)[C@@H]34 (some centres unmarked) [GJD 15] | > 50 | < 50 | > 50 | > 50 | > 50 |  |  |  |  |  |  |  |  |
